System: HC11-NeuT mammary tumors
Experiment: In vivo efficacy in orthotopic HC11-NeuT mammary tumor model
Parameters: species or system Balb/c mice
Details: intravenous, 10 mg/kg body weight
Source text: HC11 cells were infected with the pBabe-puro retrovirus as described in Morgenstern and Land (1990) Nucl. Acids Res. 18:3587-3596. Cells were either infected with the pBabe-puro encoding oncogenic NeuT (pBabe-puro NeuT) or control pBabe-puro. In this case, oncogenic activation is by the ErbB2 receptor tyrosine kinase (RTK). The receptor is constitutively activated in a ligand-independent manner due to spontaneous dimerization.
High-titer, helper-free recombinant retroviruses were produced from BOSC-23 cells transiently transfected with plasmid DNA, using the CaPO4 technique, as described in Pear et al. (1993) Proc. Natl. Acad. Sci. 90:8392-8396. HC11 cells were infected by exposure to filtered conditioned medium from 24-48 h transfected BOSC-23 cultures, in the presence of 40 μg/ml polybrene. One day later the medium was replaced with fresh virus-containing medium. Cells were trypsinized, split 1:2 into HC11 growth medium containing 0.75 μg/ml puromycin and selected for 3-4 days. One day before harvesting, the cells were cultured in the absence of puromycin, trypsinized cells were washed, resuspended at 0.5-1.0×10^6 cells/10 μl PBS and implanted in the fat pad as described in below.
All experiments were performed with Balb/c mice. Transplants were performed on 8-10 week-old females. The anesthetized mouse was pinned on a cork board and scrubbed with 70% ethanol. […]

Q: For `CC(=O)O[C@H]1C(=O)[C@@]2(C)[C@H]([C@H](OC(=O)c3ccccc3)[C@]3(O)C[C@H](OC(=O)[C@H](O)[C@@H](NC(=O)c4ccccc4)c4ccccc4)C(C)=C1C3(C)C)[C@]1(OC(C)=O)CO[C@@H]1C[C@@H]2O` [Taxol], which “reduction of tumor growth or cell proliferation” value is on record?
A: The value was “no significant reduction”.

Reference: patent publication US20050214220A1, “Tumor model” (vivoPharm Pty Ltd., priority 2004, published 2005)
